From PubChem BioAssay (NCI)
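In this assay, cells in 96-well plates receive the compound at five concentrations for 48 hours. Endpoints are linearly interpolated between the surrounding concentrations. The concentration for 50% growth inhibition is given as GI50. Definition used: TGI = concentration required for complete inhibition of growth.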

Legend:
Test in all cases: DTP human tumour cell line panel, 48 h
NCI-H522 lung = tested on: NCI-H522 lung
SK-OV-3 ovarian = tested on: SK-OV-3 ovarian
DU-145 prostate = tested on: DU-145 prostate
M14 melanoma = tested on: M14 melanoma
NCI-H460 lung = tested on: NCI-H460 lung
UACC-257 melanoma = tested on: UACC-257 melanoma
KM12 colon = tested on: KM12 colon
CCRF-CEM leukemia = tested on: CCRF-CEM leukemia
NCI/ADR-RES ovarian = tested on: NCI/ADR-RES ovarian
HOP-62 NSCLC = tested on: HOP-62 NSCLC
M19-MEL melanoma = tested on: M19-MEL melanoma
DLD-1 colon = tested on: DLD-1 colon
SNB-78 CNS = tested on: SNB-78 CNS
DMS 273 small cell lung = tested on: DMS 273 small cell lung
LXFL 529 NSCLC = tested on: LXFL 529 NSCLC
DMS 114 small cell lung = tested on: DMS 114 small cell lung
KM20L2 colon = tested on: KM20L2 colon
XF 498 CNS = tested on: XF 498 CNS
HOP-18 NSCLC = tested on: HOP-18 NSCLC

SMILES | TGI (NCI-H522 lung) | TGI (SK-OV-3 ovarian) | TGI (DU-145 prostate) | TGI (M14 melanoma) | TGI (NCI-H460 lung) | TGI (UACC-257 melanoma) | TGI (KM12 colon) | TGI (CCRF-CEM leukemia) | TGI (NCI/ADR-RES ovarian) | TGI (HOP-62 NSCLC) | TGI (M19-MEL melanoma) | TGI (DLD-1 colon) | TGI (SNB-78 CNS) | TGI (DMS 273 small cell lung) | TGI (LXFL 529 NSCLC) | TGI (DMS 114 small cell lung) | TGI (KM20L2 colon) | TGI (XF 498 CNS) | TGI (HOP-18 NSCLC) | GI50 (NCI/ADR-RES ovarian)
COc1ccc(/C=C/C(=O)c2cc(C(C)(C)C)c(O)c(C(C)(C)C)c2)cc1OC | 72.1 µM | > 100 µM | > 70.3 µM | > 100 µM | 20.2 µM | 23.3 µM | > 59.4 µM | 11.8 µM | 49.7 µM | > 100 µM | – | – | – | – | – | – | – | – | – | –
CC(=O)OC(Cc1ccc2ccccc2n1)(C(F)(F)F)C(F)(F)F | 2.16 µM | 33 µM | 17.9 µM | 3.48 µM | 18.5 µM | 0.328 µM | 12.7 µM | 1.95 µM | > 19.6 µM | 27.9 µM | – | – | – | – | – | – | – | – | – | –
COC(OC)C1OCC(n2cc(F)c(=O)[nH]c2=O)C1O (stereo not drawn) | > 100 µM | > 100 µM | > 100 µM | > 100 µM | > 100 µM | > 100 µM | > 100 µM | > 100 µM | > 100 µM | > 100 µM | – | – | – | – | – | – | – | – | – | –
CCn1c(SC(C)C(=O)c2c(C)n(C)n(-c3ccccc3)c2=O)nc2ccccc2c1=O (stereo not drawn) | > 100 µM | > 100 µM | – | > 100 µM | > 100 µM | > 100 µM | > 100 µM | > 100 µM | – | > 100 µM | > 100 µM | > 100 µM | > 100 µM | > 100 µM | > 100 µM | > 100 µM | > 100 µM | – | – | –
CCCCCCNC(=O)CCC(NC(=O)c1ccc(N(C)Cc2cnc3nc(N)nc(N)c3n2)cc1)C(=O)NCCCCCC (stereo not drawn) | > 100 µM | 37.2 µM | > 100 µM | > 100 µM | > 100 µM | > 100 µM | > 100 µM | > 100 µM | > 100 µM | > 100 µM | – | – | – | – | – | – | – | – | – | –
COC(=O)C1=C(OC(=O)/C=C/c2ccccc2)C(C(=O)OC)[C@@]2(O)[C@@H](C(=O)OC)[C@H](C)C[C@@H]1[C@@H]2C(=O)OC (stereo partly drawn) | 21 µM | 70.2 µM | > 100 µM | > 100 µM | 52.7 µM | 90.9 µM | > 100 µM | > 100 µM | 41.5 µM | 48.2 µM | – | – | – | – | – | – | – | – | – | –
COc1cc(CNc2cnc3cc(N)ccc3n2)cc(OC)c1OC | 74.5 µM | 53 µM | – | 74.3 µM | > 100 µM | > 100 µM | > 100 µM | > 100 µM | – | > 100 µM | > 100 µM | > 100 µM | – | 2.43 µM | > 100 µM | 61 µM | 37.7 µM | > 100 µM | > 100 µM | –
O=c1cc(NNc2cccc(F)c2)[nH]c(=O)[nH]1 | 35.3 µM | > 100 µM | > 100 µM | 33.9 µM | > 100 µM | 34.8 µM | > 100 µM | 55.9 µM | > 100 µM | > 100 µM | – | – | – | – | – | – | – | – | – | –
CCCCCc1cc2cc3c(c(O)c2c(=O)[nH]1)C1(CCC3)C(O)=c2c(=O)c3c(=O)cc(OC)c(=O)c=3c(=O)c2=C1O (stereo not drawn) | 1.87 µM | 5.38 µM | 3.34 µM | 3.33 µM | 3.12 µM | 4.64 µM | 4.22 µM | > 18.7 µM | 15.3 µM | 7.67 µM | – | – | – | – | – | – | – | – | – | –
CSC1C(=O)Nc2ccc3ccccc3c21 (stereo not drawn) | 7.29 µM | > 100 µM | > 100 µM | 68.3 µM | > 100 µM | 44.8 µM | 35.5 µM | 89.3 µM | > 100 µM | 71.8 µM | – | – | – | – | – | – | – | – | – | –
COc1cc(C2=NNC(=O)c3ccccc3N2c2nc(-c3cccs3)nc3ccc(Br)cc23)cc(OC)c1OC | > 100 µM | > 100 µM | 87.9 µM | 73.8 µM | 14.2 µM | > 100 µM | 30.5 µM | > 100 µM | 30 µM | 59.2 µM | – | – | – | – | – | – | – | – | – | –
CCOC(=O)c1c(Br)c(-c2ccc(OC)cc2)c(Br)n1C | 83.9 µM | > 100 µM | > 100 µM | > 100 µM | > 100 µM | 95.8 µM | 38.1 µM | 40.2 µM | 55.3 µM | 39.7 µM | – | – | – | – | – | – | – | – | – | 23.7 µM
CCO[C@@]1(COCc2ccccc2)OC(=O)C[C@@H]1N1C(=O)OC[C@@H]1c1ccccc1 | > 100 µM | > 100 µM | > 100 µM | > 100 µM | > 100 µM | > 100 µM | > 100 µM | > 100 µM | > 100 µM | 73 µM | – | – | – | – | – | – | – | – | – | –
C=C1c2nc3ccccc3n2C=C(c2ccc(C)cc2)N1c1ccc(C)cc1 | 56.7 µM | > 100 µM | > 100 µM | > 100 µM | > 100 µM | > 100 µM | > 82.2 µM | > 100 µM | > 78.9 µM | > 100 µM | – | – | – | – | – | – | – | – | – | –
CC1(C)O[C@@H](CCl)C[C@H](C#N)O1 | > 100 µM | > 100 µM | – | > 100 µM | > 100 µM | > 100 µM | > 100 µM | > 100 µM | – | > 100 µM | > 100 µM | > 100 µM | > 100 µM | > 100 µM | – | > 100 µM | > 100 µM | > 100 µM | > 100 µM | –
Cc1c(-c2ccccc2)nn2cc(-c3ccccc3)nnc12 | 55 µM | > 100 µM | > 100 µM | > 100 µM | 51.2 µM | > 100 µM | > 100 µM | > 100 µM | > 100 µM | > 100 µM | – | – | – | – | – | – | – | – | – | –
CC(=O)OCc1cncn1S(=O)(=O)c1ccc(C)cc1 | > 100 µM | > 100 µM | > 100 µM | > 100 µM | > 65.5 µM | > 100 µM | > 100 µM | > 100 µM | > 100 µM | > 100 µM | – | – | – | – | – | – | – | – | – | –
COP(=O)(OC)C(NC(=O)C(F)(F)F)(c1ccccc1)C(F)(F)F (stereo not drawn) | > 100 µM | > 100 µM | – | > 100 µM | > 100 µM | > 100 µM | > 100 µM | > 100 µM | – | > 100 µM | > 100 µM | > 100 µM | – | > 100 µM | – | > 100 µM | > 100 µM | > 100 µM | > 100 µM | –
